Experimental data from patent US12527785B2, “Renin-angiotensin-aldosterone system (RAAS) inhibitors in the treatment of pancreatic ductal carcinoma” (OCHSNER CLINIC FOUNDATION, priority 2023, dated 2026).
Read-outs that look alike come from different tables or passages of the source.

Legend:
PANC-1 cells = experiment: WST1 cell proliferation assay, PANC-1 cells; format: cell-based, human; settings: 10% FCS-DMEM
Protocol: (§1) PDA cell line (PANC-1 or HS766T) or patient cancer cells (PaCa9) were trypsinized with 1% trypsin in Hank's Balanced Salt Solution (HBSS), counted, washed, and resuspended in serum free AIM media (ThermoFisher Scientific, Waltham, MA) or complete Dulbecco's Modified Eagle Medium (DMEM) supplemented with 10% fetal bovine serum, […], 100 U/ml of penicillin G, and […] of streptomycin. Cells at a concentration of 2-4×10^4 cells/well in 100 μl culture medium were seeded in triplicate in 96 well plates, then cultured in a humidified incubator at 37° C. and 5% CO2. On the next day, cell supernatant was discarded and compounds (e.g., drugs) of the present disclosure in 200 μl medium were added with the concentrations indicated in the following Examples. After 72 hours of culture, cell proliferation reagent WST1 (20 μl/well, Sigma Aldrich Inc, St. Louis, MO) were added and plates were read using an ELISA reader at 2 hours and 4 hours under the wavelength of 450 nm. The measured absorbance (OD value) was recorded and graphed and statistically analyzed using GraphPad Prism 8, t-test, or t-test with Bonferroni correction.

HS766T cells = experiment: WST1 cell proliferation assay, HS766T cells; format: cell-based; settings: 10% FCS-DMEM
Protocol: as §1

[1] = tested on: PANC-1 tumor orthotopic xenograft; experiment: PANC-1 tumor orthotopic xenograft mouse model (BLI tumor burden, tumor weight); format: in vivo; settings: for Tumor weight / Tumor weight, mean: 100 mg/kg EMA401, DWK 8.5; for Tumor weight: Table 17A, control 0.9444; for Tumor weight lowered versus control: EMA401 (100 mg/kg); for BLI data, % of control / BLI data, mean: four weeks; for BLI data, mean: control 3.003
From the text: (§2) Human PDCA cell line PANC-1 was transduced with pre-made lentiviral vectors encoding luciferase (firefly)/red fluorescent protein (RFP) to enable monitoring of the growth of primary tumor and metastasis. […] For in vivo experiments, Nonobese diabetic/severe combined immunodeficiencyNOD-SCID mice (Jackson Labs, Bar Harbor, ME, or inhouse breeding) were first brought under anesthesia with isoflurane (2.5% in 100% oxygen, 1 L/min) in an induction chamber and maintained under adequate anesthesia (isoflurane inhalation) while being laid on a warming pad throughout the surgical procedure. For tumor generation, 5×10^4 luciferase-tagged PANC-1 cells were co-inoculated with 3×10^5 lymph node stromal cell (LNSC) analog HK cells. The mice received a 0.75-1.2 cm long incision (on the left side of the body slightly medial to the splenic silhouette) to exteriorize the spleen and pancreas. While gently retracting the pancreas laterally, a 30 G needle was inserted along the length of the pancreas from the tail to the pancreatic head region. Then, 10 μl of cell suspension was injected as the needle was withdrawn to the mid-body of the pancreas. The needle was removed, and the area was inspected for leakage and bleeding. The pancreas and spleen were internalized with forceps and the abdominal muscle layer was closed with interrupted stitches (3-0 silk suture). The overlying skin was closed with a second set of interrupted stitches. Buprenorphine SR-LAB was injected subcutaneously immediately after the surgery for pain relief.
After the surgery, tumor growth and metastatic tumor burden were monitored and assessed weekly for luciferase activity by bioluminescence imaging (BLI) using Lago Imaging System (Spectral Instruments Imaging, Tucson, AZ). Mice were anesthetized using isoflurane for all imaging procedures. Mice were administered intraperitoneally with luciferin (10 mg/kg) and imaged in 10-20 minutes for maximum luciferase signal plateau. Images were analyzed using Aura Imaging software. Once the BLI levels of xenografted tumor reached 5×10^8 photons (around 7-9 weeks post PANC-1 cell injection), the mice were grouped based on their BLI level and compounds (e.g., drugs) of the present disclosure were given by gavage daily to each group for 4 weeks. […] Upon sacrifice after 4 weeks of treatment, primary tumors and mouse organs were harvested, weighed, imaged, and formalin-fixed for (hematoxylin and eosin) H&E and immunohistochemistry staining. Data was statistically analyzed using t-test, or t-test with Bonferroni correction.

[2] = Toxicity, body weight and deaths observed in the in vivo xenograft studies
From the text: as §2
After the surgery, tumor growth and metastatic tumor burden were monitored and assessed weekly for luciferase activity by bioluminescence imaging (BLI) using Lago Imaging System (Spectral Instruments Imaging, Tucson, AZ). Mice were anesthetized using isoflurane for all imaging procedures. Mice were administered intraperitoneally with luciferin (10 mg/kg) and imaged in 10-20 minutes for maximum luciferase signal plateau. Images were analyzed using Aura Imaging software. […] […] […] Data was statistically analyzed using t-test, or t-test with Bonferroni correction.

[3] = Serum concentration of EMA401 after oral dosing in humans; format: in vivo, human
[4] = tested on: PDCA cells (PANC-1, HS766T, PaCa9); experiment: In vitro PDCA cell proliferation (WST1), summary statements over the cell lines tested; format: cell-based; settings: 10 μM; all cell lines tested
Protocol: as §1

[5] = 100 mg EMA401 p.o. in men and women; cited from earlier work

COc1ccc2c(c1OCc1ccccc1)C[C@@H](C(=O)O)N(C(=O)C(c1ccccc1)c1ccccc1)C2 [EMA401]
cell proliferation, WST1 absorbance (OD value, 450 nm), mean (PANC-1 cells; EMA 10 μM, Table 1, 2 h, control 3.618): 2.976
cell proliferation, WST1 absorbance (OD value, 450 nm), mean (PANC-1 cells; EMA 50 μM, Table 1, 2 h, control 3.618): 2.957
cell proliferation, WST1 absorbance (OD value, 450 nm), mean (PANC-1 cells; EMA401 10 μM, Table 5A, 2×10^4 cells per well, Medium/DMSO 3.348): 2.872
cell proliferation, WST1 absorbance (OD value, 450 nm), mean (PANC-1 cells; EMA401 50 μM, Table 5A, 2×10^4 cells per well, Medium/DMSO 3.348): 0.691
cell proliferation, WST1 absorbance (OD value, 450 nm), mean (HS766T cells; EMA 10 μM, Table 2, 2 h, control 3.214): 1.360
cell proliferation, WST1 absorbance (OD value, 450 nm), mean (HS766T cells; EMA 50 μM, Table 2, 2 h, control 3.214): 1.41
cell proliferation, WST1 absorbance (OD value, 450 nm), mean (HS766T cells; EMA401 10 μM, Table 6A, 2×10^4 cells per well, control 3.339): 3.290
cell proliferation, WST1 absorbance (OD value, 450 nm), mean (HS766T cells; EMA401 50 μM, Table 6A, 2×10^4 cells per well, control 3.339): 0.593
Tumor weight ([1]; all animals): 0.7215 g
Tumor weight ([1]; excluding one outlier): 0.6174 (Excluding
Tumor weight, mean ([1]; Table 17B (repeated study), control 0.8041): 0.5383 g
Tumor weight, mean ([1]; Table 17C (both studies pooled, including the outlier), control 0.8763): 0.6347 g
Tumor weight fall versus control ([1]; 100 mg/kg EMA401 for 8 weeks, first study, all animals, did not reach statistical significance): 24%
Tumor weight decrease versus control ([1]; 100 mg/kg EMA401 for 8 weeks, first study, one outlier omitted, p=0.036): 35%
Effect on tumor weight ([1]; EMA401 60 mg/kg, short-term (4 week) low dose study): did not reduce tumor weight
Tumor weight lowered versus control ([1]; 4 week study, not statistically significant): 26%
Tumor weight lowered versus control ([1]; after 8 weeks treatment (example 5), significant): 33%
BLI data, % of control ([1]; EMA (60 mg/kg)): 59%
BLI data, mean ([1]; EMA (60 mg/kg)): 1.782
BLI data, % of control ([1]; EMA (100 mg/kg)): 61%
BLI data, mean ([1]; EMA (100 mg/kg)): 1.834
End of study body weights versus control ([2]; 100 mg/kg EMA401 for 8 weeks): not different
Drug-related toxicity ([2]; 100 mg/kg EMA401 for 8 weeks (Table 16, Tables 17A-17C)): No drug-related toxicity was observed
Deaths during the study ([2]; 100 mg/kg EMA401 for 8 weeks, one control animal died): no EMA401-treated animal died
Serum concentration ([3]; 100 mg EMA401 p.o. in men and women, converted with mol wt 507.6): 2 µM
Serum concentration ([3]; 400 mg/day EMA401 in humans): 8 µM
Serum concentration ([3]; 600 mg/day p.o., extrapolated (would produce)): 12 µM
Effective (statistically significant, p<0.05, decrease in cell proliferation by WST1 assay) [4]: effective in all cell lines tested
Serum concentration [5]: 1000 ng/mL
